Laboratory results as given in patent US10131644B2, “Aryl sultam derivatives as RORc modulators” (Genentech, Inc., priority 2014, dated 2018).

Molecular target: T1, RORc (Homo sapiens, UniProt P51449)
T1 sequence (P51449 269-508 limits assumed): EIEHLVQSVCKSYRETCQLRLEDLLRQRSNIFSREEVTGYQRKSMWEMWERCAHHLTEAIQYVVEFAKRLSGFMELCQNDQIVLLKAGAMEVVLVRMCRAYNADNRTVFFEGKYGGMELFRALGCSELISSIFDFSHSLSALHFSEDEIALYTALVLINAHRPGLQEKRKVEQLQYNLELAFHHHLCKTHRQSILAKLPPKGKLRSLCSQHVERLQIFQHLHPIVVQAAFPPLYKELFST
Test: In vitro RORc ligand binding assay (25-[3H]hydroxycholesterol displacement)
Conditions: IC50, IC50 values for RORc; unit inferred
Protocol: This assay was used to determine a compound's potency in inhibiting activity of RORc by determining, Kiapp, IC50, or percent inhibition values.
On day of the assay, 100 uL of 0.05% CHAPS (in deionized H2O) was added to all wells of the GFB Unifilter plate and allowed soak for 1 h. A wash buffer of 50 mM HEPES (pH 7.4), 150 mM NaCl, and 5 mM MgCl2 was prepared to wash the filter plate. To prepare an assay buffer, BSA was added to the wash buffer to reach 0.01% and DTT was added to reach 1 mM.
The 20× compound stocks were diluted in DMSO with Assay Buffer 4-fold to reach 5× the final test concentration in 25% DMSO (10 uL compound+30 uL Assay Buffer). Solutions were mixed by aspiration several times with a pipette set on 50 uL volume. For the assay, 10 uL of 5× compound stock solutions in 25% DMSO were added to the assay plate in duplicate.
For two point screening, 10 mM stock compound solutions were diluted in DMSO to obtain 200 uM (20× the high test concentration) and then diluted 10-fold further to reach 20 uM (20× the low test concentration). The 20× stocks were diluted 4-fold with Assay Buffer (10 uL compound+30 uL Assay Buffer) to reach 5× the test concentrations (50 uM and 5 uM) and 10 uL were added to two assay plates for the duplicate wells. With each concentration tested on 2 plates, each set of 80 compounds used 4 assay plates (1 uM and 10 uM, with n=2).
For 25-hydroxycholesterol in 25% DMSO/75% Assay Buffer; 10 uL per well was used for NSB samples. Wells for Total Binding and No Receptor sample determination contained 10 uL of 25% DMSO/75% Assay Buffer per well.
Add 20 uL to all wells to reach 6 nM final in the assay.
Stock receptor solution was diluted in assay buffer to obtain 1.5 ug/mL in Assay Buffer. 20 uL was added to all wells. For No R samples, 20 uL Assay Buffer was substituted for receptor solution.
Assay plates were 96-well polypropylene V-bottom plates. 10 uL of 5× compound in 25% DMSO/75% Assay Buffer was added to Test wells. 10 uL of 25% DMSO/75% Assay Buffer was added to Total Binding or No Receptor wells. 10 uL of 5 uM 25-hydroxycholesterol in 25% DMSO/75% Assay Buffer was added to NSB wells. […] 20 uL of 1.5 ug/mL RORc receptor was added to wells (or 40 uL Assay Buffer to No R wells). Following addition to the wells, the plates were incubated 3 h at 25° C.
Using a Packard Filtermate Harvester, the filter plate were washed 4 times following transfer of the incubated samples. Plates were dry-filtered completely (2 h at 50° C. or overnight at room temperature). 50 uL Microscint 0 was added to all wells and read on Topcount protocol Inverted.
For NSB wells, 1 uM 25-hydroxycholesterol was also present.

C[C@H]1CC[C@H](c2ccccc2)S(=O)(=O)N1Cc1cc(F)c(C2(CO)CCC(O)CC2)cc1F (stereo partly drawn) [Compound 130, 4-[2,5-difluoro-4-[[(3S,6R)-3-methyl-1,1-dioxo-6-phenyl-thiazinan-2-yl]methyl]phenyl]-4-(hydroxymethyl)cyclohexanol] and C[C@H]1CC[C@H](c2ccccc2)S(=O)(=O)N1Cc1cc(F)c(C2(CO)CC2)cc1F [Compound 126, [1-[2,5-difluoro-4-[[(3S,6R)-3-methyl-1,1-dioxo-6-phenyl-thiazinan-2-yl]methyl]phenyl]cyclopropyl]methanol] are within 1.5-fold of each other in IC50: 34.7 nM for the first, 49.9 nM for the second.

Compared with C[C@H]1CC[C@H](c2ccccc2)S(=O)(=O)N1Cc1ccc(C2(C#N)CCC3(CC2)OCCO3)cc1F [Example 21, 8-[3-Fluoro-4-((3S,6R)-3-methyl-1,1-dioxo-6-phenyl-[1,2]thiazinan-2-ylmethyl)-phenyl]-1,4-dioxa-spiro[4.5]decane-8-carbonitrile], C[C@H]1CC[C@H](c2ccccc2)S(=O)(=O)N1Cc1ccc(C2(O)CCC3(CC2)OCCO3)cc1F [Compound 24, 8-[3-Fluoro-4-((3S,6R)-3-methyl-1,1-dioxo-6-phenyl-[1,2]thiazinan-2-ylmethyl)-phenyl]-1,4-dioxa-spiro[4.5]decan-8-ol] is 5.1-fold higher in IC50: 35 nM for the first, 180 nM for the second. The first is the more potent here.

Going from C[C@H]1CC[C@H](c2ccccc2)S(=O)(=O)N1Cc1ccc(C2(C(=O)O)CCOCC2)cc1F [Compound 44, 4-[3-Fluoro-4-((3S,6R)-3-methyl-1,1-dioxo-6-phenyl-[1,2]thiazinan-2-ylmethyl)-phenyl]-tetrahydro-pyran-4-carboxylic acid] to C[C@H]1CC[C@H](c2ccccc2)S(=O)(=O)N1Cc1ccc(C2(C(=O)NCCO)CCOCC2)cc1F [Compound 48, 4-(3-fluoro-4-(((3S,6R)-3-methyl-1,1-dioxido-6-phenyl-1,2-thiazinan-2-yl)methyl)phenyl)-N-(2-hydroxyethyl)tetrahydro-2H-pyran-4-carboxamide], the IC50 falls from 1100 nM to 337 nM (3.3-fold). The second is the more potent here.

First: CCOC(=O)CCC1(c2cc(F)c(CN3[C@@H](C)CC[C@H](c4ccccc4)S3(=O)=O)cc2F)CC1 [Compound 140, ethyl 3-[1-[2,5-difluoro-4-[[(3S,6R)-3-methyl-1,1-dioxo-6-phenyl-thiazinan-2-yl]methyl]phenyl]cyclopropyl]propanoate]
Second: C[C@H]1CC[C@H](c2ccccc2)S(=O)(=O)N1Cc1cc(F)c(C2(CO)CCC(O)CC2)cc1F (stereo partly drawn) [Compound 129, 4-[2,5-difluoro-4-[[(3S,6R)-3-methyl-1,1-dioxo-6-phenyl-thiazinan-2-yl]methyl]phenyl]-4-(hydroxymethyl)cyclohexanol]
The IC50 of the first is 5.6-fold higher: 45.7 nM for the first, 8.1 nM for the second. The second is the more potent here.

Compared with C[C@H]1CC[C@H](c2ccccc2)S(=O)(=O)N1Cc1ccc([C@]2(C(N)=O)CC[C@@H](n3cnnc3)CC2)cc1F [Compound 25, 1-[3-Fluoro-4-((3S,6R)-3-methyl-1,1-dioxo-6-phenyl-[1,2]thiazinan-2-ylmethyl)-phenyl]-4-[1,2,4]triazol-4-yl-cyclohexanecarboxylic acid amide], C[C@H]1CC[C@H](c2ccccc2)S(=O)(=O)N1Cc1ccc([C@]2(C#N)CC[C@@H](n3cnnc3)CC2)cc1F [Example 20, 1-[3-Fluoro-4-((3S,6R)-3-methyl-1,1-dioxo-6-phenyl-[1,2]thiazinan-2-ylmethyl)-phenyl]-4-[1,2,4]triazol-4-yl-cyclohexanecarbonitrile] is 5-fold higher in IC50: 22 nM for the first, 110 nM for the second. The first is the more potent here.

Going from C[C@H]1CC[C@H](c2ccccc2)S(=O)(=O)N1Cc1ccc(C2(CCC(N)=O)CCOCC2)cc1F [Compound 87, 3-[4-[3-fluoro-4-[[(3S,6R)-3-methyl-1,1-dioxo-6-phenyl-thiazinan-2-yl]methyl]phenyl]tetrahydropyran-4-yl]propanamide] to C[C@H]1CC[C@H](c2ccccc2)S(=O)(=O)N1Cc1ccc(C2(CCC(=O)O)CCOCC2)cc1F [Compound 84, 3-[4-[3-fluoro-4-[[(3S,6R)-3-methyl-1,1-dioxo-6-phenyl-thiazinan-2-yl]methyl]phenyl]tetrahydropyran-4-yl]propanoic acid], the IC50 rises from 8.8 nM to 49.2 nM (5.6-fold). The first is the more potent here.

Compared with C[C@H]1CCC(c2ccccc2)S(=O)(=O)N1Cc1ccc(C2(C(=O)O)CCOCC2)cc1 (stereo partly drawn) [Compound 29, 4-[4-((S)-3-Methyl-1,1-dioxo-6-phenyl-[1,2]thiazinan-2-ylmethyl)-phenyl]-tetrahydro-pyran-4-carboxylic acid], C[C@H]1CC[C@H](c2ccccc2)S(=O)(=O)N1Cc1ccc(C2(C(=O)NCCN)CCOCC2)cc1F [Compound 52, N-(2-aminoethyl)-4-[3-fluoro-4-[[(3S,6R)-3-methyl-1,1-dioxo-6-phenyl-thiazinan-2-yl]methyl]phenyl]tetrahydropyran-4-carboxamide] is 9.2-fold lower in IC50: 4400 nM for the first, 480 nM for the second.

Compared with CC(=O)NCC1(c2ccc(CN3[C@@H](C)CC[C@H](c4ccccc4)S3(=O)=O)c(F)c2)CCOCC1 [Compound 70, N-[[4-[3-fluoro-4-[[(3S,6R)-3-methyl-1,1-dioxo-6-phenyl-thiazinan-2-yl]methyl]phenyl]tetrahydropyran-4-yl]methyl]acetamide], COC(=O)NCC1(c2ccc(CN3[C@@H](C)CC[C@H](c4ccccc4)S3(=O)=O)c(F)c2)CCOCC1 [Compound 73, methyl N-[[4-[3-fluoro-4-[[(3S,6R)-3-methyl-1,1-dioxo-6-phenyl-thiazinan-2-yl]methyl]phenyl]tetrahydropyran-4-yl]methyl]carbamate] is 2.8-fold lower in IC50: 148 nM for the first, 53.2 nM for the second.

Compared with C[C@H]1CC[C@H](c2ccccc2)S(=O)(=O)N1Cc1ccc(C2(C(N)=O)CC(F)(F)C2)cc1F [Compound 167, 3,3-difluoro-1-[3-fluoro-4-[[(3S,6R)-3-methyl-1,1-dioxo-6-phenyl-thiazinan-2-yl]methyl]phenyl]cyclobutanecarboxamide], C[C@H]1CC[C@H](c2ccccc2)S(=O)(=O)N1Cc1ccc(C2(NCC(N)=O)CCOCC2)cc1F [Compound 163, 2-[[4-[3-fluoro-4-[[(3S,6R)-3-methyl-1,1-dioxo-6-phenyl-thiazinan-2-yl]methyl]phenyl]tetrahydropyran-4-yl]amino]acetamide] is 3.5-fold lower in IC50: 11.1 nM for the first, 3.2 nM for the second. The second is the more potent here.

Compared with C[C@H]1CC[C@H](c2ccccc2)S(=O)(=O)N1Cc1ccc(C2([C@@H](O)CO)CCOCC2)cc1F [Compound 98, (1R)-1-[4-[3-fluoro-4-[[(3S,6R)-3-methyl-1,1-dioxo-6-phenyl-thiazinan-2-yl]methyl]phenyl]tetrahydropyran-4-yl]ethane-1,2-diol], CCOC(=O)C[C@@H](O)C1(c2ccc(CN3[C@@H](C)CC[C@H](c4ccccc4)S3(=O)=O)c(F)c2)CCOCC1 [Compound 116, ethyl (3R)-3-[4-[3-fluoro-4-[[(3S,6R)-3-methyl-1,1-dioxo-6-phenyl-thiazinan-2-yl]methyl]phenyl]tetrahydropyran-4-yl]-3-hydroxy-propanoate] is 5.2-fold lower in IC50: 63 nM for the first, 12.2 nM for the second. The second is the more potent here.

CC(=O)N1CC(OCC(O)CO)(c2cc(F)c(CN3[C@@H](C)CC[C@H](c4ccccc4)S3(=O)=O)cc2F)C1 (stereo partly drawn) [Compound 143, 1-[3-[2,5-difluoro-4-[[(3S,6R)-3-methyl-1,1-dioxo-6-phenyl-thiazinan-2-yl]methyl]phenyl]-3-(2,3-dihydroxypropoxy)azetidin-1-yl]ethanone] and CC(=O)N1CCC(OCC(O)CO)(c2cc(F)c(CN3[C@@H](C)CC[C@H](c4ccccc4)S3(=O)=O)cc2F)CC1 (stereo in doubt) [Compound 169, 1-[4-[2,5-difluoro-4-[[(3S,6R)-3-methyl-1,1-dioxo-6-phenyl-thiazinan-2-yl]methyl]phenyl]-4-[(2R)-2,3-dihydroxypropoxy]-1-piperidyl]ethanone] are within 1.5-fold of each other in IC50: 29.8 nM for the first, 20.8 nM for the second.

Compared with CNC(=O)CNC1(c2ccc(CN3[C@@H](C)CC[C@H](c4ccccc4)S3(=O)=O)c(F)c2)CCOCC1 [Compound 173, 2-[[4-[3-fluoro-4-[[(3S,6R)-3-methyl-1,1-dioxo-6-phenyl-thiazinan-2-yl]methyl]phenyl]tetrahydropyran-4-yl]amino]-N-methyl-acetamide], C[C@H]1CC[C@H](c2ccccc2)S(=O)(=O)N1Cc1ccc(C2(NC(=O)CO)CCOCC2)cc1F [Compound 95, N-[4-[3-fluoro-4-[[(3S,6R)-3-methyl-1,1-dioxo-6-phenyl-thiazinan-2-yl]methyl]phenyl]tetrahydropyran-4-yl]-2-hydroxy-acetamide] is 3.7-fold higher in IC50: 33.1 nM for the first, 122 nM for the second.

Going from CC(=O)N1CCC(OCC(N)=O)(c2cc(F)c(CN3[C@@H](C)CC[C@H](c4ccccc4)S3(=O)=O)cc2F)CC1 [Compound 141, 2-[[1-acetyl-4-[2,5-difluoro-4-[[(3S,6R)-3-methyl-1,1-dioxo-6-phenyl-thiazinan-2-yl]methyl]phenyl]-4-piperidyl]oxy]acetamide] to CC(=O)N[C@H]1CC[C@](C#N)(c2ccc(CN3[C@@H](C)CC[C@@H](c4ccccc4)S3(=O)=O)c(F)c2)CC1 [Compound 33, N-{4-Cyano-4-[3-fluoro-4-((3S,6S)-3-methyl-1,1-dioxo-6-phenyl-[1,2]thiazinan-2-ylmethyl)-phenyl]-cyclohexyl}-acetamide], the IC50 rises from 26 nM to 1800 nM (69-fold). The first is the more potent here.

Compared with COC(=O)[C@]1(c2ccc(CN3[C@@H](C)CC[C@H](c4ccccc4)S3(=O)=O)cc2)CC[C@H](n2cnnc2)CC1 [Example 17, 1-[4-((3S,6R)-3-Methyl-1,1-dioxo-6-phenyl-[1,2]thiazinan-2-ylmethyl)-phenyl]-4-[1,2,4]triazol-4-yl-cyclohexanecarboxylic acid methyl ester], CNC(=O)CCC1(c2ccc(CN3[C@@H](C)CC[C@H](c4ccccc4)S3(=O)=O)c(F)c2)CCOCC1 [Compound 88, 3-[4-[3-fluoro-4-[[(3S,6R)-3-methyl-1,1-dioxo-6-phenyl-thiazinan-2-yl]methyl]phenyl]tetrahydropyran-4-yl]-N-methyl-propanamide] is 24-fold lower in IC50: 360 nM for the first, 14.8 nM for the second. The second is the more potent here.
